IC50 data for 24 compounds are collected here from patent US8389764B2, “Urea and sulfamide derivatives as inhibitors of TAFIa” (Sanofi, priority 2006, dated 2013).

Numbered stars: 1 amine (or outer) side, 2 acyl side, 3 side chain; on linkers, the order of the positions; unused ones are H or OH. Square brackets hold non-standard residues; d marks the D form. Peptide text beside a SMILES is read from it. * marks the point of attachment. ξ: configuration not given here. dCha = N[C@H](CC1CCCCC1)C(=O)O; Phe(ol) = N[C@H](CO)Cc1ccccc1; Cbz = O=C(OCc1ccccc1)*; CO = O=C([*:1])[*:2]; ξV = CC(C)C(N)C(=O)O

The target of this assay is T1, TAFIa (Homo sapiens, UniProt Q96IY4).
T1 construct: purchased American Diagnostica 874TAFIA
T1 sequence (Q96IY4 115-423): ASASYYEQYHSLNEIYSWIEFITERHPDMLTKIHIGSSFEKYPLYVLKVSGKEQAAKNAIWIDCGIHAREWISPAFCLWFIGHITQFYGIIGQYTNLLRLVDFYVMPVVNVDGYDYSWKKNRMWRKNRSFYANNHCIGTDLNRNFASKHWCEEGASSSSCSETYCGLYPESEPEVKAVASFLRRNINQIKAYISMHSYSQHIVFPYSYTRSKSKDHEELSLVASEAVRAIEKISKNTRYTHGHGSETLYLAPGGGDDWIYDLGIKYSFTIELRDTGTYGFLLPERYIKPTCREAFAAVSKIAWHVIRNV
Nature of the assay: TAFIa inhibition, Actichrome plasma TAFI activity kit (American Diagnostica). Format: biochemical. Conditions: 15 min preincubation at room temperature, read at 420 nm, duplicate determination of serial dilutions. As for the experimental part: The enzymic reaction was started by adding 10 μl of TAFIa developer (prediluted 1:2 with assay buffer).
The IC50 values were calculated from the averaged values (duplicate determination) of serial dilutions of the substance with the aid of the Softmax Pro software (version 4.8; Molecular Devices).
As usually defined, the IC50 is the concentration that gives 50% inhibition. Low values mean greater potency in that assay, high ones weaker potency in that assay. In the case of `CC(C)[C@H](NC(=O)[C@@H](CCCCNC(=O)OCc1ccccc1)NC(=O)N[C@@H](CCCCN)C(=O)O)C(=O)NC1C[C@@H]2CC[C@H]1C2` (stereo partly drawn) [Example 115], the half-inhibitory concentration (IC50) was 239 nM.

The compound `CCOC(=O)[C@@H](NC(=O)[C@@H](NC(=O)[C@@H](CCCCNC(=O)OCc1ccccc1)NC(=O)N[C@@H](CCCCN)C(=O)O)C(C)C)C(C)C` [Example 118] ({Lys-CO}-[dK](Cbz)-Val-Val-OEt) yielded an IC50 of 267 nM.

`CC(C)[C@H](NC(=O)[C@@H](CCCCNC(=O)OCc1ccccc1)NC(=O)N[C@@H](CCCCN)C(=O)O)C(=O)N[C@@H](C)c1ccc(Cl)cc1` [Example 119] had an IC50 of 1300 nM.

In the case of `CC1CCCC(NC(=O)[C@@H](NC(=O)[C@@H](CCCCNC(=O)OCc2ccccc2)NC(=O)N[C@@H](CCCCN)C(=O)O)C(C)C)C1` (stereo partly drawn) [Example 120], the half-inhibitory concentration (IC50) came out at 615 nM.

`CC(C)[C@H](NC(=O)[C@@H](CCCCNC(=O)OCc1ccccc1)NC(=O)N[C@@H](CCCCN)C(=O)O)C(=O)NCC(C)(C)C` [Example 121]: half-maximal inhibition (IC50) was put at 370 nM.

`CC(C)[C@H](NC(=O)[C@@H](CCCCNC(=O)OCc1ccccc1)NC(=O)N[C@@H](CCCCN)C(=O)O)C(=O)N[C@H](C)c1ccccc1` [Example 122] returned an IC50 of 525 nM.

Compound `CC1(C)[C@@H]2CC[C@@]1(C)[C@@H](NC(=O)[C@@H](CC1CCCCC1)NC(=O)N[C@@H](CCCN)C(=O)O)C2` [Example 124] gave an IC50 of 18 nM.

Turning to `CC(C)[C@H](NC(=O)[C@@H](CCCCNC(=O)OCc1ccccc1)NC(=O)N[C@@H](CCCCN)C(=O)O)C(=O)NC(C)C(C)(C)C` (stereo partly drawn) [Example 126], 204 nM corresponded to half-maximal inhibition (IC50).

On to `CC(C)[C@H](NC(=O)[C@@H](CCCCNC(=O)OCc1ccccc1)NC(=O)N[C@@H](CCCCN)C(=O)O)C(=O)N[C@@H]1C[C@H]1c1ccccc1` [Example 127], for which the 50% inhibitory concentration (IC50) was determined as 693 nM.

In turn, `CC1CCCCC1NC(=O)[C@@H](NC(=O)[C@@H](CCCCNC(=O)OCc1ccccc1)NC(=O)N[C@@H](CCCCN)C(=O)O)C(C)C` (stereo partly drawn) [Example 128] gave an IC50 of 391 nM.

As to `CC(C)[C@H](NC(=O)[C@@H](CCCCNC(=O)OCc1ccccc1)NC(=O)N[C@@H](CCCCN)C(=O)O)C(=O)NCc1ccc(Cl)cc1` [Example 129], the IC50 is 608 nM.

`COC(=O)[C@H](Cc1ccc(O)cc1)NC(=O)[C@@H](NC(=O)[C@@H](CC1CCCCC1)NC(=O)N[C@@H](CCCCN)C(=O)O)C(C)C` [Example 133] ({Lys-CO}-[dCha]-Val-Tyr-OMe) yielded a 50% inhibitory concentration (IC50) of 636 nM.

Compound `COC(=O)[C@H](Cc1c[nH]c2ccccc12)NC(=O)[C@@H](NC(=O)[C@@H](CCCCNC(=O)OCc1ccccc1)NC(=O)N[C@@H](CCCCN)C(=O)O)C(C)C` [Example 134] ({Lys-CO}-[dK](Cbz)-Val-Trp-OMe) came in with an IC50 of 532 nM.

`CC(C)C(NC(=O)[C@@H](CC1CCCCC1)NC(=O)N[C@@H](CCCCN)C(=O)O)C(=O)N[C@H](CO)Cc1ccccc1` (stereo partly drawn) [Example 135] ({Lys-CO}-[dCha]-[ξV]-[Phe(ol)]) registered an IC50 of 522 nM.

`CC(C)[C@H](NC(=O)[C@@H](NC(=O)[C@@H](CC1CCCCC1)NC(=O)N[C@@H](CCCCN)C(=O)O)C(C)C)C(N)=O` [Example 137] ({Lys-CO}-[dCha]-Val-Val-NH2): 140 nM corresponded to half-maximal inhibition (IC50).

With `CC(C)C(NC(=O)C(NC(=O)[C@@H](CCCCNC(=O)OCc1ccccc1)NC(=O)N[C@@H](CCCNC(=N)N)C(=O)O)C(C)C)C(N)=O` (stereo partly drawn) [Example 139] ({Arg-CO}-[dK](Cbz)-[ξV]-[ξV]-NH2), the IC50 was 376 nM.

`CC(C)[C@H](NC(=O)[C@@H](NC(=O)[C@@H](CCCCNC(=O)OCc1ccccc1)NC(=O)N[C@@H](CCCCN)C(=O)O)C(C)C)C(N)=O` [Example 140] ({Lys-CO}-[dK](Cbz)-Val-Val-NH2) registered an IC50 of 318 nM.

`CC[C@@H](C)[C@H](NC(=O)[C@@H](CCCCNC(=O)OCc1ccccc1)NC(=O)N[C@@H](CCCCN)C(=O)O)C(N)=O` [Example 142] displayed an IC50 of 10600 nM.

The compound `CC1(C)[C@@H]2CC[C@@]1(C)[C@@H](NC(=O)[C@@H](CC1CCCCC1)NC(=O)N[C@@H](CSCCN)C(=O)O)C2` [Example 142a] showed an IC50 of 0.7 nM.

In the case of `CC1(C)[C@@H]2CC[C@@]1(C)[C@@H](NC(=O)[C@@H](CC1CCCCC1)NC(=O)N[C@@H](CS(=O)(=O)CCN)C(=O)O)C2` [Example 142b], the IC50 was 6 nM.

In turn, `COC(=O)[C@@H](NC(=O)[C@@H](NC(=O)[C@H](Cc1ccccc1)NS(=O)(=O)N[C@@H](CCCCN)C(=O)O)C(C)C)C(C)C` [Example 143, (S)-6-Amino-2-(3-{(S)-1-[(S)-1-((S)-1-methoxycarbonyl-2-methyl-propylcarbamoyl)-2-methyl-propylcarbamoyl]-2-phenyl-ethyl}-sulfamidyl)-hexanoic acid] displayed an IC50 of 9760 nM.

`CC1(C)[C@@H]2CC[C@@]1(C)[C@@H](NC(=O)[C@H](CC1CCC1)NS(=O)(=O)N[C@@H](CCCCN)C(=O)O)C2` [Example 150] registered an IC50 of 357 nM.

Turning to `CC(C)CNC(=O)[C@@H](NC(=O)[C@H](CC1CCCCC1)NS(=O)(=O)N[C@@H](CCCCN)C(=O)O)C(C)C` [Example 169], it took 770 nM to reach half-maximal inhibition (IC50).

For `CC(C)(C)OC(=O)[C@H](CCCCN)NS(=O)(=O)N[C@@H](CC1CCCCC1)C(=O)N[C@@H]1C[C@H]2CC[C@]1(C)C2(C)C` [Example 186], 22900 nM corresponded to half-maximal inhibition (IC50).
